Test results as given in ChEMBL document CHEMBL1201862, “PubChem BioAssay data set” (2004).
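Cells were grown in 96-well plates and exposed to each compound for 48 hours at five concentrations; endpoints were interpolated linearly between bracketing concentrations, or set to the highest concentration if not reached. The concentration for 50% growth inhibition is given as GI50.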 The source made the active and inactive calls. No stated cut-off is given here; in the data, active = GI50 up to about 1.1 µM and inactive = higher.

What was measured:
Test in all cases: NCI anticancer screen, dose series, 48 h
[1] = tested on: HL-60
[2] = tested on: MOLT-4
[3] = tested on: UO-31
[4] = tested on: U-251
[5] = tested on: BT-549
[6] = tested on: SK-MEL-28
[7] = tested on: HCT-116
[8] = tested on: SK-MEL-2
[9] = tested on: SF-539
[10] = tested on: OVCAR-4
[11] = tested on: MDA-MB-435
[12] = tested on: LOX IMVI
[13] = tested on: NCI-H522
[14] = tested on: UACC-257
[15] = tested on: SNB-75
[16] = tested on: A549
[17] = tested on: KM12
[18] = tested on: HCT-15
[19] = tested on: SNB-19

Compound	GI50 [1]	GI50 [2]	GI50 [3]	GI50 [4]	GI50 [5]	GI50 [6]	GI50 [7]	GI50 [8]	GI50 [9]	GI50 [10]	GI50 [11]	GI50 [12]	GI50 [13]	GI50 [14]	GI50 [15]	GI50 [16]	GI50 [17]	GI50 [18] [µM]	GI50 [19]
Cc1ncc([N+](=O)[O-])n1CCN(C)C(=O)CCCn1ccnc1[N+](=O)[O-]	> 100 µM (inactive)	> 100 µM (inactive)	> 100 µM (inactive)	> 100 µM (inactive)	> 100 µM (inactive)	> 100 µM (inactive)	> 100 µM (inactive)	> 100 µM (inactive)	> 100 µM (inactive)	> 100 µM (inactive)	> 100 µM (inactive)	> 100 µM (inactive)	> 100 µM (inactive)	> 100 µM (inactive)	> 100 µM (inactive)	> 100 µM (inactive)	> 100 µM (inactive)	> 100	–
CCOC(=O)c1cc(C)n(CN(CCO)Cn2nc(C(=O)OCC)cc2C)n1	34.2 µM (inactive)	31.8 µM (inactive)	21.5 µM (inactive)	35.3 µM (inactive)	27.5 µM (inactive)	40.7 µM (inactive)	18.3 µM (inactive)	19.9 µM (inactive)	17.7 µM (inactive)	33.4 µM (inactive)	39.7 µM (inactive)	27.5 µM (inactive)	22.6 µM (inactive)	29.2 µM (inactive)	–	97.3 µM (inactive)	31.6 µM (inactive)	21.5	52.4 µM (inactive)
Cc1cc(O)c(C(C)C)cc1C1(c2cc(C(C)C)c(O)cc2C)OC(=O)c2ccccc21	0.415 µM (active)	1.34 µM (inactive)	2.56 µM (inactive)	1.97 µM (inactive)	2.24 µM (inactive)	1.6 µM (inactive)	1.67 µM (inactive)	1.82 µM (inactive)	1.79 µM (inactive)	2.12 µM (inactive)	1.63 µM (inactive)	1.78 µM (inactive)	1.84 µM (inactive)	1.85 µM (inactive)	2.58 µM (inactive)	3.05 µM (inactive)	1.75 µM (inactive)	2	3.15 µM (inactive)
COc1cc2c(c3oc4c(O)cccc4c(=O)c13)CC(C(C)(O)CO)O2 (stereo unspecified)	83.2 µM (inactive)	15.7 µM (inactive)	> 100 µM (inactive)	97.9 µM (inactive)	34.5 µM (inactive)	> 100 µM (inactive)	40.6 µM (inactive)	57.4 µM (inactive)	60.3 µM (inactive)	–	> 100 µM (inactive)	25 µM (inactive)	35.1 µM (inactive)	> 100 µM (inactive)	–	> 100 µM (inactive)	–	> 100	94.4 µM (inactive)
CC(C)(O)C1CC[C@]2(C)[C@H]3CC[C@@H]4[C@@]5(C)CCCC(C)(C)[C@@H]5CC[C@@]4(C)[C@]3(C)CC[C@@H]12 (stereo partly specified)	> 100 µM (inactive)	> 100 µM (inactive)	–	> 100 µM (inactive)	> 100 µM (inactive)	> 100 µM (inactive)	> 100 µM (inactive)	> 100 µM (inactive)	> 100 µM (inactive)	> 100 µM (inactive)	> 100 µM (inactive)	> 100 µM (inactive)	> 100 µM (inactive)	> 100 µM (inactive)	–	> 100 µM (inactive)	> 100 µM (inactive)	> 100	> 100 µM (inactive)
COC1(CC[C@H](C)COC2OC(CO)C(O)C(O)C2O)O[C@H]2C[C@H]3[C@@H]4CC=C5C[C@@H](OC6OC(CO)C(OC7OC(C)C(O)C(O)C7O)C(O)C6OC6OC(C)C(O)C(O)C6O)CC[C@]5(C)[C@H]4CC[C@]3(C)[C@H]2[C@@H]1C (stereo partly specified)	8.55 µM (inactive)	> 23.5 µM (inactive)	2.47 µM (inactive)	2.4 µM (inactive)	4.88 µM (inactive)	3.77 µM (inactive)	–	3.78 µM (inactive)	1.96 µM (inactive)	3.78 µM (inactive)	1.77 µM (inactive)	1.9 µM (inactive)	2.31 µM (inactive)	5.51 µM (inactive)	1.86 µM (inactive)	1.99 µM (inactive)	2.47 µM (inactive)	2.68	3.46 µM (inactive)
